Source: the supplement of paper PMC11061612

What was measured:
Assay in all cases: combination Emax (second highest fraction inhibited in the dose matrix, 72 h); higher = more inhibition; extreme values may be limits of the assay
[1] = test system: MDA-MB-415 (Breast Carcinoma)
Procedure, shortened: (§1)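 Bliss excess equals the observed combination effect minus the expected value EA + EB − EA·EB, where EA and EB are the effects of each agent alone. Combination Emax is the second-highest inhibition within the matrix. Inhibition was scaled from CellTiter-Glo 2.0 luminescence, with 0 set by vehicle wells and 1 by blank wells, after 72 hours of two-drug dosing of cells plated in 1536-well plates.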

[2] = test system: MS-1 (Small Cell Lung Carcinoma)
Procedure, shortened: as §1

[3] = test system: NB1 (Neuroblastoma)
Procedure, shortened: as §1

[4] = test system: KP-4 (Pancreatic Carcinoma)
Procedure, shortened: as §1

[5] = test system: ES6 (Ewing's Sarcoma)
Procedure, shortened: as §1

[6] = test system: RCC-JW (Kidney Carcinoma)
Procedure, shortened: as §1

[7] = test system: CL-11 (Colorectal Carcinoma)
Procedure, shortened: as §1

[8] = test system: NMC-G1 (Low Grade Glioma)
Procedure, shortened: as §1

[9] = test system: NCI-H1963 (Small Cell Lung Carcinoma)
Procedure, shortened: as §1

[10] = test system: SK-CO-1 (Colorectal Carcinoma)
Procedure, shortened: as §1

[11] = test system: NCI-H2373 (Mesothelioma)
Procedure, shortened: as §1

[12] = test system: SCC-4 (Oral Cavity Carcinoma)
Procedure, shortened: as §1

[13] = test system: WM35 (Melanoma)
Procedure, shortened: as §1

[14] = test system: OVCAR-3 (Ovarian Carcinoma)
Procedure, shortened: as §1

[15] = test system: SNU-C2B (Colorectal Carcinoma)
Procedure, shortened: as §1

[16] = test system: CPC-N (Small Cell Lung Carcinoma)
Procedure, shortened: as §1

[17] = test system: AM-38 (Glioblastoma)
Procedure, shortened: as §1

[18] = test system: UACC-257 (Melanoma)
Procedure, shortened: as §1

[19] = test system: BxPC-3 (Pancreatic Carcinoma)
Procedure, shortened: as §1

[20] = test system: C-33-A (Cervical Carcinoma)
Procedure, shortened: as §1

Row | SMILES | combination Emax [1] | combination Emax [2] | combination Emax [3] | combination Emax [4] | combination Emax [5] | combination Emax [6] | combination Emax [7] | combination Emax [8] | combination Emax [9] | combination Emax [10] | combination Emax [11] | combination Emax [12] | combination Emax [13] | combination Emax [14] | combination Emax [15] | combination Emax [16] | combination Emax [17] | combination Emax [18] | combination Emax [19] | combination Emax [20]
1 | Cc1c2c(nn1C)CSCc1cc(n(C)n1)CSc1cc(c3ccccc3c1)OCCCc1c(C(=O)O)n(C)c3c-2c(Cl)ccc13 [AZD5991] + Cn1cnc2c(F)c(Nc3ccc(Br)cc3Cl)c(C(=O)NOCCO)cc21 [Selumetinib] (first compound max 1 µM, 7x7, partner max 3 µM) | 0.398 | 0.375 | 0.238 | 0.226 | 0.209 | 0.228 | 0.525 | 0.31 | 0.427 | 0.818 | 0.318 | 0.839 | 0.929 | 0.218 | 0.356 | 0.237 | 0.709 | 0.817 | 0.483 | 0.365
2 | Cc1c2c(nn1C)CSCc1cc(n(C)n1)CSc1cc(c3ccccc3c1)OCCCc1c(C(=O)O)n(C)c3c-2c(Cl)ccc13 [AZD5991] + C=CCn1c(=O)c2cnc(Nc3ccc(N4CCN(C)CC4)cc3)nc2n1-c1cccc(C(C)(C)O)n1 [AZD1775] (first compound max 1 µM, partner max 1 µM) | 0.404 | 0.916 | 0.936 | 0.659 | 0.386 | 0.279 | 0.507 | 0.425 | 0.945 | 0.517 | 0.394 | 0.715 | 0.371 | 0.835 | 0.497 | 0.967 | 0.53 | 0.294 | 0.616 | 0.945
3 | CCN(CCO)CCCOc1ccc2c(Nc3cc(CC(=O)Nc4cccc(F)c4)[nH]n3)ncnc2c1 [AZD2811] + C=CCn1c(=O)c2cnc(Nc3ccc(N4CCN(C)CC4)cc3)nc2n1-c1cccc(C(C)(C)O)n1 [AZD1775] (first compound max 1 µM, partner max 1 µM) | 0.131 | 0.848 | 0.869 | 0.651 | 0.285 | 0.161 | 0.612 | 0.254 | 0.876 | 0.674 | 0.408 | 0.454 | 0.197 | 0.262 | 0.554 | 0.961 | 0.377 | 0.154 | 0.449 | 0.882
4 | CN(CCO)CC[C@H](CSc1ccccc1)Nc1ccc(S(=O)(=O)NC(=O)c2ccc(N3CCC([C@@H](O)c4ccccc4-c4ccc(Cl)cc4)CC3)cc2)cc1S(=O)(=O)C(F)(F)F [AZD4320] + CN(C)CCCOc1ccc(-c2ccc3ncc4c(c3c2)n(C2CCOCC2)c(=O)n4C)cn1 [AZD0156] (first compound max 1 µM, 7x7, partner max 1 µM) | 0.636 | 0.68 | 0.173 | 0.101 | 0.188 | 0.62 | 0.144 | 0.756 | 1 | 0.712 | 0.191 | 0.612 | 0.152 | 0.132 | 0.208 | 0.967 | 0.718 | 0.141 | 0.0513 | 0.126
5 | CN(C)CCCOc1ccc(-c2ccc3ncc4c(c3c2)n(C2CCOCC2)c(=O)n4C)cn1 [AZD0156] + CCN(CCO)CCCOc1ccc2c(Nc3cc(CC(=O)Nc4cccc(F)c4)[nH]n3)ncnc2c1 [AZD2811] (first compound max 1 µM, 7x7, partner max 1 µM) | 0.206 | 0.224 | 0.641 | 0.327 | 0.176 | 0.093 | 0.0968 | 0.126 | 0.857 | 0.798 | 0.354 | 0.336 | 0.119 | 0.105 | 0.113 | 0.794 | 0.342 | 0.119 | 0.101 | 0.0887
6 | CC1(C)CCC(CN2CCN(c3ccc(C(=O)NS(=O)(=O)c4ccc(NCC5CCOCC5)c([N+](=O)[O-])c4)c(Oc4cnc5[nH]ccc5c4)c3)CC2)=C(c2ccc(Cl)cc2)C1 [Venetoclax] + CN(C)CCCOc1ccc(-c2ccc3ncc4c(c3c2)n(C2CCOCC2)c(=O)n4C)cn1 [AZD0156] (first compound max 1 µM, 7x7, partner max 1 µM) | 0.262 | 0.445 | 0.145 | 0.21 | 0.349 | 0.184 | 0.11 | 0.192 | 0.565 | 0.271 | 0.269 | 0.358 | 0.135 | 0.119 | 0.156 | 0.78 | 0.209 | 0.177 | 0.276 | 0.494
